From paper PMC3791473 (Nature Communications, 2013) come the findings set out here.

This assay concerns the target T1, Ptr2p (Saccharomyces cerevisiae, UniProt P32901).
T1 sequence (P32901 1-601): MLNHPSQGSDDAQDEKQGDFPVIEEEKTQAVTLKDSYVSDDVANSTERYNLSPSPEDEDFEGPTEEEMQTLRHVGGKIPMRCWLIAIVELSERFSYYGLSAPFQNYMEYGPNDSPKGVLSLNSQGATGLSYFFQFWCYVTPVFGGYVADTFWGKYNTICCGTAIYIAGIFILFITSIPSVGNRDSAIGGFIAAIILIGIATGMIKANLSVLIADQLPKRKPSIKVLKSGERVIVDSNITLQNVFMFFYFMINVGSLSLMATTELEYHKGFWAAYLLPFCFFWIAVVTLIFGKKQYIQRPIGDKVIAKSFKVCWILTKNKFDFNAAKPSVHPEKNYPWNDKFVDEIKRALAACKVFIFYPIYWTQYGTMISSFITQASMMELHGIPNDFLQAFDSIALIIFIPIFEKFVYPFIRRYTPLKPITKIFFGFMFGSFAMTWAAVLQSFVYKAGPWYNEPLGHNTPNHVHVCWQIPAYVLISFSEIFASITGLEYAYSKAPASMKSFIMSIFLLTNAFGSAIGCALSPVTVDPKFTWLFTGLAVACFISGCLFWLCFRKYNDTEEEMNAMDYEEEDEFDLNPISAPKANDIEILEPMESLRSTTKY
Description: Fluorescence-based competitive uptake. In kind it is cell-based.

Peptide text beside a SMILES is read from it.

For the compound `NCC(=O)NCC(=O)NCC(=O)O` [Gly–Gly–Gly] (H-Gly-Gly-Gly-OH; N-terminus and C-terminus assumed), the Ki amounted to 48000 µM. With `C[C@H](N)C(=O)N[C@@H](C)C(=O)O` [N-terminal A, C-terminal A, Ala–Ala] (H-Ala-Ala-OH; N-terminus and C-terminus assumed), affinity was put at a Ki of 400 µM. For `CC(C)C[C@H](NC(=O)[C@H](C)N)C(=O)O` [N-terminal A, C-terminal L, Ala–Leu] (H-Ala-Leu-OH; N-terminus and C-terminus assumed), affinity was put at a Ki of 310 µM. In the case of `CC(C)C[C@H](NC(=O)CN)C(=O)O` [N-terminal G, C-terminal L, Gly-Leu], the Ki was 600 µM. `CC(C)C[C@H](NC(=O)[C@@H](N)Cc1c[nH]cn1)C(=O)O` [N-terminal H, C-terminal L, His–Leu] (H-His-Leu-OH; N-terminus and C-terminus assumed) yielded a Ki of 50 µM. In turn, `CC(C)C[C@H](N)C(=O)NCC(=O)O` [N-terminal L, C-terminal G, Leu-Gly] (H-Leu-Gly-OH; N-terminus and C-terminus assumed) came in with a Ki of 360 µM. `CC(C)C[C@H](N)C(=O)N[C@@H](Cc1c[nH]cn1)C(=O)O` [N-terminal L, C-terminal H, Leu-His] (H-Leu-His-OH; N-terminus and C-terminus assumed) came in with a Ki of 130 µM. The compound `N[C@@H](Cc1c[nH]c2ccccc12)C(=O)N[C@@H](Cc1ccccc1)C(=O)O` [N-terminal W, C-terminal F, Trp-Phe] (H-Trp-Phe-OH) registered a Ki of 20 µM. With carnosine [reference compound], the “competitive inhibition of β-Ala–Lys (AMCA) uptake” value (SC-Ptr2p cells) is “inhibited”. Consider β-Ala–Lys (AMCA) [reference compound], for which, for the setting “read-out: Km of β-Ala–Lys (AMCA) uptake, SC-Ptr2p cells, (±s.d.)”, the Km worked out at 160 µM.

By Ki is commonly meant the dissociation constant of the complex between target and ligand, obtained from inhibition or displacement. What is called Km is the substrate concentration at which the rate is half of its maximum.
